This test deals with human orexin type 2 receptor (hOX2R) (Homo sapiens (Human), UniProt O43614). Put plainly: Measurement of orexin type 2 receptor agonist activity (Experimental Example 2-1, FLIPR TETRA, intracellular Ca2+). In kind it is cell-based. The note with it: CHO dhfr- cells expressing hOX2R; for Emax: read-out: Emax (%); for Emax at 30 µM: value at 30 uM concentration, orexin B as full agonist = 100%.

Where [1] appears, read: agonist activity, 10 nM human orexin B = 100%.

human orexin type 2 receptor (hOX2R), sequence (O43614 whole entry): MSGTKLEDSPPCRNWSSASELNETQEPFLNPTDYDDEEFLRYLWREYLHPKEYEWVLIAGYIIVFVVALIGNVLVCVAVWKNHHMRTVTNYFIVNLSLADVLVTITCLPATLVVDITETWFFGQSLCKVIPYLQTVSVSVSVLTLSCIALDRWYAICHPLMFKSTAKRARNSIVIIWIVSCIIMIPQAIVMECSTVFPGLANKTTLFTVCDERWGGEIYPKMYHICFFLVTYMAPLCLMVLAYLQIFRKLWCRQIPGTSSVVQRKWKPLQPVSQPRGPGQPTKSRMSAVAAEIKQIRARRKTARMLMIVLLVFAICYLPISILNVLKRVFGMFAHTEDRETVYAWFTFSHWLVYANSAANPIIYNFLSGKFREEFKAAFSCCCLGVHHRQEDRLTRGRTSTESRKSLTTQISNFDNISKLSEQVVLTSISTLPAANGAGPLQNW

As to `CS(=O)(=O)N[C@H]1CCCN(S(C)(=O)=O)[C@H]1CO[C@H]1CC[C@@H](c2ccccc2)CC1` (relative stereo) [Example 152, N-(cis-1-(methylsulfonyl)-2-(((cis-4-phenylcyclohexyl)oxy)methyl)piperidin-3-yl)methanesulfonamide], the Emax (FLIPR TETRA, Fluo-4AM) was 96%.

As to `CCNC(=O)N1CCC[C@H](NS(C)(=O)=O)[C@@H]1CO[C@H]1C[C@@H](c2ccc(C)cc2)C1` (relative stereo) [Example 192, cis-N-ethyl-2-(((cis-3-(4-methylphenyl)cyclobutyl)oxy)methyl)-3-((methylsulfonyl)amino)piperidine-1-carboxamide], under “FLIPR TETRA, Fluo-4AM”, the EC50 was determined as 150 nM and the Emax stood at 108%.

Turning to `CS(=O)(=O)N[C@H]1CCCN[C@H]1CO[C@H]1CC[C@@H](c2cc(F)cc(F)c2)CC1` [Example 7, N-((2R,3S)-2-(((cis-4-(3,5-difluorophenyl)cyclohexyl)oxy)methyl)piperidin-3-yl)methanesulfonamide], the Emax at 30 µM stood at 100%. The EC50 under setting [1] was 250 nM.

Compound `CCCC(=O)N1CCC[C@H](NS(C)(=O)=O)[C@@H]1CO[C@H]1CC[C@@H](C(C)C)CC1` (relative stereo) [Example 35, N-(cis-1-butyryl-2-(((cis-4-isopropylcyclohexyl)oxy)methyl)piperidin-3-yl)methanesulfonamide] returned an Emax at 30 µM of 99%. The compound also gave a half-maximal effective concentration (EC50) under setting [1] of 93 nM.

Consider `CC(=O)N1CCC[C@H](NS(C)(=O)=O)[C@@H]1CO[C@H]1CC[C@@H](c2ccn(C)n2)CC1` (relative stereo) [Example 158, N-(cis-1-acetyl-2-(((cis-4-(1-methyl-1H-pyrazol-3-yl)cyclohexyl)oxy)methyl)piperidin-3-yl)methanesulfonamide], for which, under “FLIPR TETRA, Fluo-4AM”, the midpoint of the response, the EC50, lay at 1600 nM and the Emax came to 83%.

With `COC(=O)N1CCC[C@H](NS(C)(=O)=O)[C@@H]1CO[C@H]1CC[C@@H](c2c(F)ccc(F)c2F)CC1` [Example 257, methyl (2R,3S)-3-((methylsulfonyl)amino)-2-(((cis-4-(2,3,6-trifluorophenyl)cyclohexyl)oxy)methyl)piperidine-1-carboxylate], the Emax (FLIPR TETRA, Fluo-4AM) is 97%.

`CCNC(=O)N1CCC[C@H](NS(C)(=O)=O)[C@@H]1CO[C@H]1CC[C@@H](c2ccccc2C(F)(F)F)CC1` [Example 282, (2R,3S)-N-ethyl-3-((methylsulfonyl)amino)-2-(((cis-4-(2-(trifluoromethyl)phenyl)cyclohexyl)oxy)methyl)piperidine-1-carboxamide]: under “FLIPR TETRA, Fluo-4AM”, the EC50 was 0.55 nM and the “Emax (%)” value was determined as 93%.

With `CC(=O)N1CCC[C@H](NS(C)(=O)=O)[C@@H]1CO[C@H]1CC[C@@H](c2cccc(F)c2F)CC1` [Example 19, N-((2R,3S)-1-acetyl-2-(((cis-4-(2,3-difluorophenyl)cyclohexyl)oxy)methyl)piperidin-3-yl)methanesulfonamide], the Emax at 30 µM turned out to be 102%. This compound gave an EC50 under setting [1] of 12 nM.

Consider `CS(=O)(=O)N[C@H]1CCCN[C@H]1CO[C@H]1CC[C@@H](c2ccccc2Cl)CC1` (relative stereo) [Example 332, N-(cis-2-(((cis-4-(2-chlorophenyl)cyclohexyl)oxy)-methyl)piperidin-3-yl)methanesulfonamide], for which, where the note is “FLIPR TETRA, Fluo-4AM”, the EC50 is 610 nM and the Emax was 93%.

`CS(=O)(=O)N[C@H]1CCCN[C@H]1CO[C@H]1CC[C@@H](c2ccc(F)cc2F)CC1` (relative stereo) [Example 142, N-(cis-2-(((cis-4-(2,4-difluorophenyl)cyclohexyl)oxy)methyl)piperidin-3-yl)methanesulfonamide]: under “FLIPR TETRA, Fluo-4AM”, the EC50 was 4000 nM and the Emax turned out to be 96%.

For `CS(=O)(=O)N[C@H]1CCCN(C(=O)[C@H]2CCC(=O)O2)[C@H]1CO[C@H]1CC[C@@H](c2ccccc2)CC1` [Example 183, N-((2R,3S)-1-(((2R)-5-oxotetrahydrofuran-2-yl)carbonyl)-2-(((cis-4-phenylcyclohexyl)oxy)methyl)piperidin-3-yl)methanesulfonamide], for the setting “FLIPR TETRA, Fluo-4AM”, a half-maximal effect (EC50) was put at 40 nM and the Emax turned out to be 94%.

Consider `COC(=O)N1CCC[C@H](NS(C)(=O)=O)[C@@H]1CO[C@H]1CC[C@@H](c2ccccc2Cl)CC1` (relative stereo) [Example 335, methyl cis-2-(((cis-4-(2-chlorophenyl)cyclohexyl)oxy)-methyl)-3-((methylsulfonyl)amino)piperidine-1-carboxylate], for which, where the note is “FLIPR TETRA, Fluo-4AM”, the EC50 is 6.1 nM and the maximal response (Emax) was found to be 101%.

On to `CCNC(=O)N1CCC[C@H](NS(C)(=O)=O)[C@@H]1CO[C@H]1CC[C@@H](c2ccc(F)cc2F)CC1` (relative stereo) [Example 146, cis-2-(((cis-4-(2,4-difluorophenyl)cyclohexyl)oxy)methyl)-N-ethyl-3-((methylsulfonyl)amino)piperidine-1-carboxamide], for which, where the note is “FLIPR TETRA, Fluo-4AM”, a half-maximal response (EC50) required 2.5 nM and the Emax came to 100%.

As to `COC(=O)N1CCC[C@H](NS(C)(=O)=O)[C@@H]1COC1CCN(c2ncccn2)CC1` (relative stereo) [Example 151, methyl cis-3-((methylsulfonyl)amino)-2-(((1-(pyrimidin-2-yl)piperidin-4-yl)oxy)methyl)piperidine-1-carboxylate], under “FLIPR TETRA, Fluo-4AM”, it took 490 nM to reach a half-maximal effect (EC50) and the Emax worked out at 107%.

Take `Cc1ccccc1[C@H]1CC[C@@H](OC[C@@H]2NCCC[C@@H]2NS(C)(=O)=O)CC1` [Example 318, N-((2R,3S)-2-(((cis-4-(2-methylphenyl)cyclohexyl)oxy)-methyl)piperidin-3-yl)methanesulfonamide]: under “FLIPR TETRA, Fluo-4AM”, it took 1100 nM to reach a half-maximal effect (EC50) and the maximal effect (Emax) was determined as 99%.

The compound `CC(C)[C@H]1CC[C@@H](OC[C@H]2[C@@H](NS(C)(=O)=O)CCCN2C(=O)C2CCC(=O)N2)CC1` (stereo partly drawn) [Example 87, N-(cis-2-(((cis-4-isopropylcyclohexyl)oxy)methyl)-1-(5-oxoprolyl)piperidin-3-yl)methanesulfonamide] returned an Emax at 30 µM of 82%. Further, it took 4900 nM to reach a half-maximal effect under setting [1] (EC50).

`Cc1nc(S(=O)(=O)N2CCC[C@H](NS(C)(=O)=O)[C@@H]2CO[C@H]2CC[C@@H](C(C)C)CC2)cn1C` (relative stereo) [Example 65, N-(cis-1-((1,2-dimethyl-1H-imidazol-4-yl)sulfonyl)-2-(((cis-4-isopropylcyclohexyl)oxy)methyl)piperidin-3-yl)methanesulfonamide] gave an Emax at 30 µM of 95%. Under setting [1], this compound showed an EC50 of 1300 nM.

Consider `CC(=O)N1CCC[C@H](NS(C)(=O)=O)[C@@H]1CO[C@H]1CC[C@@H](c2c(C)cccc2C)CC1` (relative stereo) [Example 321, N-(cis-1-acetyl-2-(((cis-4-(2,6-dimethylphenyl)cyclohexyl)oxy)-methyl)piperidin-3-yl)methanesulfonamide], for which, under “FLIPR TETRA, Fluo-4AM”, a half-maximal response (EC50) required 2200 nM and the Emax was 37%.

In turn, `CC(=O)N1CCC[C@H](NS(=O)(=O)N(C)C)[C@@H]1CO[C@H]1CC[C@@H](C(C)C)CC1` (relative stereo) [Example 78, N′-(cis-1-acetyl-2-(((cis-4-isopropylcyclohexyl)oxy)methyl)piperidin-3-yl)-N,N-dimethylsulfuric diamide] registered an Emax at 30 µM of 91%. The compound further had an EC50 under setting [1] of 63 nM.

In the case of `CC(C)[C@H]1CC[C@@H](OC[C@H]2[C@@H](NS(C)(=O)=O)CCCN2C(=O)C2CC(O)C2)CC1` (stereo partly drawn) [Example 92, N-((2R,3S)-1-((3-hydroxycyclobutyl)carbonyl)-2-(((cis-4-isopropylcyclohexyl)oxy)methyl)piperidin-3-yl)methanesulfona], the Emax at 30 µM was found to be 92%. In addition, the response under setting [1] was half-maximal at 370 nM (EC50).

In turn, `CC(=O)N1CCC[C@H](NS(C)(=O)=O)[C@@H]1CO[C@H]1CC[C@@H](c2cc(F)cc(F)c2)CC1` [Example 8, N-((2R,3S)-1-acetyl-2-(((cis-4-(3,5-difluorophenyl)cyclohexyl)oxy)methyl)piperidin-3-yl)methanesulfonamide] came in with an Emax at 30 µM of 96%. Under setting [1], the response was half-maximal at 5.6 nM (EC50).

On to `CN(C)S(=O)(=O)N[C@H]1CCCN[C@H]1CO[C@H]1CC[C@@H](c2ccccc2)CC1` (relative stereo) [Example 109, N,N-dimethyl-N′-(cis-2-(((cis-4-phenylcyclohexyl)oxy)methyl)piperidin-3-yl)sulfuric diamide], for which the Emax at 30 µM is 102%. For the same compound, it took 480 nM to reach a half-maximal effect under setting [1] (EC50).

As for `CS(=O)(=O)N[C@H]1CCCN(C(=O)C2CC2)[C@H]1CO[C@H]1C[C@@H](c2ccccc2)C1` (relative stereo) [Example 193, N-(cis-1-(cyclopropylcarbonyl)-2-(((cis-3-phenylcyclobutyl)oxy)methyl)piperidin-3-yl)methanesulfonamide], for the setting “FLIPR TETRA, Fluo-4AM”, it took 300 nM to reach a half-maximal effect (EC50) and the Emax was 88%.

The compound `CC(C)[C@H]1CC[C@@H](OC[C@H]2[C@@H](NS(C)(=O)=O)CCCN2C(=O)NC2CC2)CC1` (relative stereo) [Example 99, cis-N-cyclopropyl-2-(((cis-4-isopropylcyclohexyl)oxy)methyl)-3-((methylsulfonyl)amino)piperidine-1-carboxamide] yielded a maximal response (Emax) at 30 µM of 112%. For the same compound, the 50% effective concentration (EC50) under setting [1] was 13 nM.

With `CCS(=O)(=O)N[C@H]1CCCN(C(=O)OC)[C@H]1CO[C@H]1CC[C@@H](c2ccccc2)CC1` (relative stereo) [Example 301, methyl cis-3-((ethylsulfonyl)amino)-2-(((cis-4-phenylcyclohexyl)oxy)methyl)-piperidine-1-carboxylate], for the setting “FLIPR TETRA, Fluo-4AM”, a half-maximal effect (EC50) was put at 21 nM and the Emax was 105%.

As to `CS(=O)(=O)N[C@H]1CCCN(C(=O)C2CC2)[C@H]1CO[C@H]1CC[C@@H](c2ccccc2F)CC1` [Example 268, N-((2R,3S)-1-(cyclopropylcarbonyl)-2-(((cis-4-(2-fluorophenyl)cyclohexyl)oxy)methyl)piperidin-3-yl)methanesulfonamide], for the setting “FLIPR TETRA, Fluo-4AM”, the EC50 was found to be 1.5 nM and the Emax was 103%.

Values taken from patent publication US10287305B2, “Substituted piperidine compound and use thereof” (Takeda Pharmaceutical Company Limited, priority 2016, dated 2019).
